# Results taken from patent publication US9295669B2, “Combination therapy for proliferative disorders” (Hoffman La-Roche Inc., priority 2010, dated 2016).
# Read-outs that look alike come from different tables or passages of the source.
# Assays:
# [1] = test system: human LOX-IMVI melanoma cell xenografts; experiment: Tumor growth inhibition in mice with human LOX-IMVI melanoma xenografts; assay type: in vivo; conditions: monotherapy; for % Inhibition end of study Day: 19 / % T/C end of study Day: 19 / Average % Regression per Group / Mean Tumor Volume End Study DAY: 19 / % Inhibition end of study Day: 18 / % T/C end of study Day: 18 / Mean Tumor Volume End Study DAY: 18 / % Tumor Growth Inhibition: 10 mice; for Complete Regression / Partial Regression: animals out of 10 per group
# Description: (§1) Mice were implanted with human LOX-IMVI melanoma cell xenografts. The mice, cell line used, and implantation are described below.
# (§2) Female athymic Crl:NU-Foxn1nu mice were used for efficacy testing (Charles River, Wilmington, Mass., USA). Mice were 10-12 weeks of age and weighed 23-25 grams. The health of the mice was assessed daily by observation and analysis of blood samples taken from sentinel animals on shared shelf racks. All animals were allowed to acclimate and recover from shipping-related stress for one week. Autoclaved water and irradiated food (5058-ms Pico Lab mouse chow, Purina Mills, Richmond, Ind., USA) were provided ad libitum, and the animals were kept in a 12 hour light and dark cycle. Cages, bedding and water bottles were autoclaved before use and changed weekly. All animal experiments were conducted in accordance with the Guide for the Care and Use of Laboratory Animals, local regulations, and protocols approved by the Roche Animal Care and Use Committee in our AAALAC accredited facility.
# (§3) LOX-IMVI cells (aka LOX, National Cancer Institute—Bethesda, Md.) were grown in RPMI-1640 medium supplemented with 10% Fetal Bovine Serum (FBS) and 1% of […] L-glutamine, scaled up, harvested, and prepared so that each mouse received 2×10^6 cells/0.2 ml calcium and magnesium free phosphate-buffered saline (PBS). Cells were implanted in the subcutaneous right flank of each mouse.
# (§4) Mice implanted with human xenografts were randomized into eight groups of 10 mice each according to tumor volume so that all groups had similar starting mean tumor volumes. The approximate starting mean tumor volume for this study was 130 mm^3.
# (§5) Treatment began on day 5 post-cell implant and ended at day 18 post-cell implant. Four groups of mice developed in example 3 were used. Each group was subjected to a different therapy as follows: • (1) mice receiving Compound I vehicle bid po and peginterferon alfa-2a vehicle 1×/wk sc; • (2) mice receiving Compound I at 75 mg/kg bid bid po; • (3) mice receiving peginterferon alfa-2a at 900 μg 1×/wk sc; and • (4) mice receiving Compound I at 75 mg/kg bid bid po and peginterferon alfa-2a at 900 μg 1×/wk sc.
# (§6) The Compound I suspension and its corresponding vehicle were dosed using a sterile 1 cc syringe and 18-gauge gavage needle (0.2 ml/animal) twice daily. The peginterferon alfa-2a solution and its corresponding vehicle were dosed using a sterile 1 cc syringe and 26-gauge needle (0.2 ml/animal) once weekly on days 5 and 12 post-cell implant for a total of two injections.
# Tumor measurements were taken once or twice per week. All animals were individually followed throughout the experiment.
# Efficacy data was graphically represented as the mean tumor volume±standard error of the mean (SEM). In addition, tumor volumes of treated groups were presented as percentages of tumor volumes of the control groups (% T/C), using the formula: 100×((T−T0)/(C−C0)), where T represented mean tumor volume of a treated group on a specific day during the experiment, T0 represented mean tumor volume of the […] on the first day of treatment; C represented mean tumor volume of a control group on the specific day during the experiment, and Co represented mean tumor volume of the […] on the first day of treatment.
# Tumor volume (in cubic millimeters) was calculated using the ellipsoid formula: (D×(d^2))/2, where “D” represents the large diameter of the tumor and “d” represents the small diameter.
# Also, tumor regression and/or percent change in tumor volume was calculated using the formula: ((T−T0)/T0)×100, where ‘T’ represents mean tumor volume of the treated group at a particular day, and ‘T0’ represents mean tumor volume of the same treated group at initiation of treatment.
# Statistical analysis was determined by the rank sum test and One Way Anova and a post-hoc Bonferroni t-test (SigmaStat, version 2.0, Jandel Scientific, San Francisco, Calif., USA). […]
# [2] = test system: human LOX-IMVI melanoma cell xenografts; experiment: Assessment of survival (increased life span) in mice with human LOX-IMVI melanoma xenografts; assay type: in vivo; conditions: monotherapy; for 50% Treatment Days (median survival day of treated group): 50% vehicle days 14; for % ILS (increased life span): versus vehicle group
# Description: as §1, §2, §3, §4, §5, §6
# For survival assessment, the percent of increased life space (ILS) was calculated as: 100×[(median survival day of treated group−median survival day of control group)/median survival day of control group]. Median survival was determined utilizing Kaplan Meier survival analysis. Survival in treated groups was statistically compared with the vehicle group and survival comparisons were done between groups using the log-rank test (Graph Pad Prism, La Jolla, Calif., USA). Differences between groups were considered significant when the probability value (p) was ≦0.05.
# Treatment began on day 6 post-cell implant and ended at day 19 post-cell implant. Four groups of mice developed in example 3 were used. The treatment groups were as follows: • (1) mice receiving Compound I vehicle bid po and peginterferon alfa-2a vehicle 1×/wk sc; • (2) mice receiving Compound I at 25 mg/kg bid po; • (3) mice receiving peginterferon alfa-2a at 450 μg 1×/wk sc; and • (4) mice receiving Compound I at 25 mg/kg bid and peginterferon alfa-2a at 450 μg 1×/wk.
# as §6, with “6” for “5”, “13” for “12”
# [3] = assay type: in vivo; conditions: monotherapy, 10 mice
# Description: as §2, with “Autoclaved water and irradiated food (5058-ms Pico Lab mouse chow, Purina Mills, Richmond, Ind., USA) were provided ad libitum, and the animals were kept in a 12 hour light and dark cycle.” left out
# Treatment began on day 5 post-cell implant and ended at day 18 post-cell implant.
# The peginterferon alfa-2a solution and its corresponding vehicle were dosed using a sterile 1 cc syringe and 26-gauge needle (0.2 ml/animal) once weekly on days 5 and 12 post-cell implant for a total of two injections.
# Weight loss was graphically represented as percent change in mean group body weight, using the formula: ((W−W0)/W0)×100, where ‘W’ represents mean body weight of the treated group at a particular day, and ‘W0’ represents mean body weight of the same treated group at initiation of treatment.
# Treatment began on day 6 post-cell implant and ended at day 19 post-cell implant.
# The peginterferon alfa-2a solution and its corresponding vehicle were dosed using a sterile 1 cc syringe and 26-gauge needle (0.2 ml/animal) once weekly on days 6 and 13 post-cell implant for a total of two injections.
# [4] = Compound I 25 mg/kg bid po, days 6-19 post-cell implant
# [5] = Compound I 75 mg/kg bid po, days 5-18 post-cell implant
# [6] = peginterferon alfa-2a 450 μg 1×/wk sc (days 6 and 13)
# [7] = peginterferon alfa-2a 900 μg 1×/wk sc (days 5 and 12)
molecule,measurement,setting,value
"CCCS(=O)(=O)Nc1ccc(F)c(C(=O)c2c[nH]c3ncc(-c4ccc(Cl)cc4)cc23)c1F [Compound I, Propane-1-sulfonic acid{3-[5-(4-chloro-phenyl)-1H-pyrrolo[2,3-b]pyridine-3-carbonyl]-2,4-difluoro-phenyl}-amide]",% Inhibition end of study Day: 19,[1]; [4],regression
same,% T/C end of study Day: 19,[1]; [4],−5%
same,Average % Regression per Group,[1]; [4],100%
same,Mean Tumor Volume End Study DAY: 19,[1]; [4],0.00 mm^3
same,Complete Regression,[1]; [4],10
same,Partial Regression,[1]; [4],0
same,% Inhibition end of study Day: 18,[1]; [5],regression
same,% T/C end of study Day: 18,[1]; [5],−4%
same,Average % Regression per Group,[1]; [5],100%
same,Mean Tumor Volume End Study DAY: 18,[1]; [5],0.00 mm^3
same,Complete Regression,[1]; [5],10
same,Partial Regression,[1]; [5],0
same,50% Treatment Days (median survival day of treated group),[2]; [4],59 days
same,% ILS (increased life span),[2]; [4],321%
same,50% Treatment Days (median survival day of treated group),[2]; [5],504 days
same,% ILS (increased life span),[2]; [5],3500%
same,# animals ≧ 20% BWL,[3]; [4],0
same,% Change in Body Weight at end of Study Day 19,[3]; [4],1.3%
same,Max % Weight Gain,[3]; [4],1.3%
same,Max % Weight Loss,[3]; [4],−1.0%
same,Mortality,[3]; [4],0
same,# animals ≧ 20% BWL,[3]; [5],0
same,% Change in Body Weight at end of Study Day 18,[3]; [5],−7.0%
same,Max % Weight Gain,[3]; [5],−3.6%
same,Max % Weight Loss,[3]; [5],−7.0%
same,Mortality,[3]; [5],0
Peginterferon alfa-2a,% Inhibition end of study Day: 19,[1]; [6],regression
same,% T/C end of study Day: 19,[1]; [6],0%
same,% Tumor Growth Inhibition,[1]; [6],>100%
same,Average % Regression per Group,[1]; [6],6%
same,Mean Tumor Volume End Study DAY: 19,[1]; [6],122.93 mm^3
same,Complete Regression,[1]; [6],1
same,Partial Regression,[1]; [6],6
same,% Inhibition end of study Day: 18,[1]; [7],98%
same,% T/C end of study Day: 18,[1]; [7],2%
same,% Tumor Growth Inhibition,[1]; [7],98%
same,Mean Tumor Volume End Study DAY: 18,[1]; [7],193.98 mm^3
same,Complete Regression,[1]; [7],3
same,Partial Regression,[1]; [7],2
same,50% Treatment Days (median survival day of treated group),[2]; [6],30 days
same,% ILS (increased life span),[2]; [6],114%
same,50% Treatment Days (median survival day of treated group),[2]; [7],34 days
same,% ILS (increased life span),[2]; [7],143%
same,# animals ≧ 20% BWL,[3]; [6],0
same,% Change in Body Weight at end of Study Day 19,[3]; [6],8.1%
same,Max % Weight Gain,[3]; [6],8.1%
same,Max % Weight Loss,[3]; [6],3.7%
same,Mortality,[3]; [6],0
same,# animals ≧ 20% BWL,[3]; [7],0
same,% Change in Body Weight at end of Study Day 18,[3]; [7],2.7%
same,Max % Weight Gain,[3]; [7],2.7%
same,Max % Weight Loss,[3]; [7],0.7%
same,Mortality,[3]; [7],0
